Experimental findings from publication PMC12027948, “Development of Peptidomimetic PROTACs as Potential Degraders of 3-Chymotrypsin-like Protease of SARS-CoV-2” (International Journal of Molecular Sciences, 2025) are described below.

One series deals with SARS-CoV-2 3CL^pro (Severe acute respiratory syndrome coronavirus 2, UniProt P0DTD1). Put plainly: cell-based. As to conditions: HEK293 cells with stable 3CL^pro-flag expression, 72 h treatment, densitometry of Western blot; read-out: Dmax (maximum degradation in percentage).
A short description of series [1]: Cytotoxicity assay (Cell Counting Kit-8). The note with it: human. A general note: Formazan colour is commonly taken as a measure of viable cells.
Another series concerns HEK293 cells. Description: Cytotoxicity assay (Cell Counting Kit-8). The note with it: read-out: CC50 (50% cytotoxicity concentration); HEK293, 72 h, CCK8.
Setting [2] is: HEK293 cells, CC50 (50% cytotoxicity concentration), HEK293, 72 h, CCK8.

What is called Dmax is the largest share of the target that was removed. Take `CC(C)[C@H](NC(=O)[C@@H](NC(=O)OC(C)(C)C)C1CCCCC1)C(=O)OCCOCCNc1cccc2c1C(=O)N(C1CCC(=O)NC1=O)C2=O` (some centres unmarked) [Compound 15]: the Dmax on SARS-CoV-2 3CL^pro is 89.3%. For the same molecule, in series [1] (setting [2]), the CC50 at 3 days was 145 µM. For the molecule `CC(C)C[C@H](NC(=O)OC(C)(C)C)C(=O)N[C@@H](Cc1ccccc1)C(=O)OCCOCCOCCNc1cccc2c1C(=O)N(C1CCC(=O)NC1=O)C2=O` (some centres unmarked) [Compound 16], the Dmax at SARS-CoV-2 3CL^pro was 75%. Besides, the CC50 at 3 days in series [1] (setting [2]) is around 25 µM. The CC50 with HEK293 cells was found to be 25.8 µM.

In turn, `CC(C)(C)OC(=O)N[C@H](C(=O)N[C@@H](Cc1ccccc1)C(=O)NCCCCNC(=O)CCC(=O)Nc1cccc2c1CN(C1CCC(=O)NC1=O)C2=O)C1CCCCC1` (some centres unmarked) [Compound 17] displayed a CC50 at 3 days in series [1] of 219 µM.

In the case of `CC(C)(C)OC(=O)N[C@H](C(=O)N[C@@H](Cc1ccccc1)C(=O)NCCCCCCNC(=O)CCC(=O)Nc1cccc2c1CN(C1CCC(=O)NC1=O)C2=O)C1CCCCC1` (some centres unmarked) [Compound 18], the CC50 at 3 days in series [1] stood at 92.2 µM. The same measure, in the same setting: the figure for `CC(C)C[C@H](NC(=O)[C@H](Cc1ccccc1)NC(=O)OC(C)(C)C)C(=O)NCCCCCCNC(=O)CCC(=O)Nc1cccc2c1CN(C1CCC(=O)NC1=O)C2=O` (some centres unmarked) [Compound 19] is 241 µM.
